Data taken from ChEMBL document CHEMBL1201862, “PubChem BioAssay data set” (2004).
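Cultured in 96-well plates, cells were exposed to test compound for 48 hours across five concentrations. GI50: concentration for 50% inhibition of growth.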 Active and inactive are the calls of the source. Cut-off read from the data, not from the text of the source: active = GI50 up to about 1.1 µM and inactive = higher.

Experiments:
Assay in all cases: NCI anticancer screen, dose series, 48 h
A549 = system: A549
PC-3 = system: PC-3
Malme-3M = system: Malme-3M
MDA-MB-231 = system: MDA-MB-231
MOLT-4 = system: MOLT-4
Hs-578T = system: Hs-578T
HCC 2998 = system: HCC 2998
U-251 = system: U-251
A498 = system: A498
CCRF-CEM = system: CCRF-CEM
DU-145 = system: DU-145
SNB-19 = system: SNB-19
HCT-116 = system: HCT-116
RPMI-8226 = system: RPMI-8226
OVCAR-5 = system: OVCAR-5
RXF 393 = system: RXF 393
NCI-H522 = system: NCI-H522
SK-MEL-28 = system: SK-MEL-28
MCF7 = system: MCF7
KM12 = system: KM12
OVCAR-3 = system: OVCAR-3
OVCAR-4 = system: OVCAR-4
T47D = system: T47D
COLO 205 = system: COLO 205
UO-31 = system: UO-31
UACC-257 = system: UACC-257
ACHN = system: ACHN
MDA-MB-435 = system: MDA-MB-435
TK-10 = system: TK-10
SF-268 = system: SF-268
HT-29 = system: HT-29
HOP-62 = system: HOP-62
786-0 = system: 786-0
SW-620 = system: SW-620
BT-549 = system: BT-549
SN12C = system: SN12C
NCI/ADR-RES = system: NCI/ADR-RES
OVCAR-8 = system: OVCAR-8
SK-MEL-5 = system: SK-MEL-5
SK-MEL-2 = system: SK-MEL-2
CAKI-1 = system: CAKI-1
SF-295 = system: SF-295
NCI-H226 = system: NCI-H226
EKVX = system: EKVX
SR = system: SR
SNB-75 = system: SNB-75
LOX IMVI = system: LOX IMVI
NCI-H460 = system: NCI-H460
HOP-92 = system: HOP-92
IGROV-1 = system: IGROV-1
UACC-62 = system: UACC-62
HCT-15 = system: HCT-15
MDA-N = system: MDA-N
K562 = system: K562
M14 = system: M14
NCI-H23 = system: NCI-H23
SK-OV-3 = system: SK-OV-3
SF-539 = system: SF-539
HL-60 = system: HL-60

## CC1(C)CNC(c2ccc3c(c2)Cc2cc(C4=NC(C)(C)CN4)ccc2-3)=N1
A549
  GI50: > 100 µM (inactive)
PC-3
  GI50: 39.8 µM (inactive)
Malme-3M
  GI50: 24.7 µM (inactive)
MDA-MB-231
  GI50: 39.1 µM (inactive)
MOLT-4
  GI50: 31.9 µM (inactive)
Hs-578T
  GI50: 64.7 µM (inactive)
HCC 2998
  GI50: 26.2 µM (inactive)
U-251
  GI50: 22 µM (inactive)
A498
  GI50: 77.8 µM (inactive)
CCRF-CEM
  GI50: 48.2 µM (inactive)
DU-145
  GI50: > 100 µM (inactive)
SNB-19
  GI50: 35.1 µM (inactive)
HCT-116
  GI50: 32.8 µM (inactive)
RPMI-8226
  GI50: 25.2 µM (inactive)
OVCAR-5
  GI50: > 100 µM (inactive)
RXF 393
  GI50: > 100 µM (inactive)
NCI-H522
  GI50: 29.9 µM (inactive)
SK-MEL-28
  GI50: 38.7 µM (inactive)
MCF7
  GI50: 23.3 µM (inactive)
KM12
  GI50: 28.1 µM (inactive)
OVCAR-3
  GI50: 35.7 µM (inactive)
OVCAR-4
  GI50: 32.9 µM (inactive)
T47D
  GI50: 61.2 µM (inactive)
COLO 205
  GI50: 28.2 µM (inactive)
UO-31
  GI50: > 100 µM (inactive)
UACC-257
  GI50: 31 µM (inactive)
ACHN
  GI50: > 100 µM (inactive)
MDA-MB-435
  GI50: 32.8 µM (inactive)
TK-10
  GI50: > 100 µM (inactive)
SF-268
  GI50: 34.6 µM (inactive)
HT-29
  GI50: 32.1 µM (inactive)
HOP-62
  GI50: 33.5 µM (inactive)
786-0
  GI50: 49.8 µM (inactive)
SW-620
  GI50: 34.5 µM (inactive)
BT-549
  GI50: > 100 µM (inactive)
SN12C
  GI50: 36.6 µM (inactive)
NCI/ADR-RES
  GI50: > 100 µM (inactive)
OVCAR-8
  GI50: 37 µM (inactive)
SK-MEL-5
  GI50: 60.7 µM (inactive)
SK-MEL-2
  GI50: 20.1 µM (inactive)
CAKI-1
  GI50: > 100 µM (inactive)
SF-295
  GI50: > 100 µM (inactive)
NCI-H226
  GI50: 49.4 µM (inactive)
EKVX
  GI50: 60 µM (inactive)
SR
  GI50: 32.5 µM (inactive)
SNB-75
  GI50: 90.6 µM (inactive)
LOX IMVI
  GI50: 37 µM (inactive)
NCI-H460
  GI50: 30.8 µM (inactive)
HOP-92
  GI50: 90.8 µM (inactive)
IGROV-1
  GI50: > 100 µM (inactive)
UACC-62
  GI50: 25.3 µM (inactive)
HCT-15
  GI50: > 100 µM
MDA-N
  GI50: 39.8 µM (inactive)
K562
  GI50: 24.4 µM (inactive)
M14
  GI50: 45.1 µM (inactive)
NCI-H23
  GI50: 35.1 µM (inactive)
SK-OV-3
  GI50: 44.5 µM (inactive)

## CC(=O)Nc1cc2cc(NS(=O)(=O)c3cc(C(F)(F)F)cc(C(F)(F)F)c3)ccc2oc1=O
A549
  GI50: > 100 µM (inactive)
PC-3
  GI50: > 100 µM (inactive)
Malme-3M
  GI50: > 100 µM (inactive)
MDA-MB-231
  GI50: > 100 µM (inactive)
MOLT-4
  GI50: > 100 µM (inactive)
Hs-578T
  GI50: > 100 µM (inactive)
HCC 2998
  GI50: > 100 µM (inactive)
U-251
  GI50: 28.7 µM (inactive)
A498
  GI50: > 100 µM (inactive)
CCRF-CEM
  GI50: > 100 µM (inactive)
DU-145
  GI50: > 100 µM (inactive)
SF-539
  GI50: 29.4 µM (inactive)
SNB-19
  GI50: 47.2 µM (inactive)
HCT-116
  GI50: > 100 µM (inactive)
RPMI-8226
  GI50: > 100 µM (inactive)
OVCAR-5
  GI50: > 100 µM (inactive)
RXF 393
  GI50: 0.016 µM (active)
NCI-H522
  GI50: > 100 µM (inactive)
SK-MEL-28
  GI50: > 100 µM (inactive)
MCF7
  GI50: > 100 µM (inactive)
KM12
  GI50: > 100 µM (inactive)
OVCAR-3
  GI50: 52.1 µM (inactive)
HL-60
  GI50: > 100 µM (inactive)
OVCAR-4
  GI50: > 100 µM (inactive)
T47D
  GI50: > 100 µM (inactive)
COLO 205
  GI50: > 100 µM (inactive)
UO-31
  GI50: > 100 µM (inactive)
UACC-257
  GI50: > 100 µM (inactive)
ACHN
  GI50: > 100 µM (inactive)
MDA-MB-435
  GI50: > 100 µM (inactive)
TK-10
  GI50: > 100 µM (inactive)
SF-268
  GI50: 32.6 µM (inactive)
HT-29
  GI50: > 100 µM (inactive)
HOP-62
  GI50: > 100 µM (inactive)
786-0
  GI50: 72.3 µM (inactive)
SW-620
  GI50: > 100 µM (inactive)
BT-549
  GI50: > 100 µM (inactive)
SN12C
  GI50: > 100 µM (inactive)
NCI/ADR-RES
  GI50: > 100 µM (inactive)
OVCAR-8
  GI50: 34.3 µM (inactive)
SK-MEL-5
  GI50: > 100 µM (inactive)
SK-MEL-2
  GI50: > 100 µM (inactive)
CAKI-1
  GI50: > 100 µM (inactive)
SF-295
  GI50: > 100 µM (inactive)
NCI-H226
  GI50: > 100 µM (inactive)
EKVX
  GI50: > 100 µM (inactive)
SR
  GI50: > 100 µM (inactive)
LOX IMVI
  GI50: 98.6 µM (inactive)
NCI-H460
  GI50: > 100 µM (inactive)
HOP-92
  GI50: > 100 µM (inactive)
IGROV-1
  GI50: > 100 µM (inactive)
UACC-62
  GI50: > 100 µM (inactive)
HCT-15
  GI50: > 100 µM
MDA-N
  GI50: > 100 µM (inactive)
K562
  GI50: > 100 µM (inactive)
M14
  GI50: > 100 µM (inactive)
NCI-H23
  GI50: > 100 µM (inactive)
